Experiments:
[1] = 101.33 kPa, Liquid, Hot wire method
[2] = molar heat capacity at constant pressure; conditions: 101.33 kPa, Liquid, Small sample (50 mg) DSC

CCCC[N+]1(C)CCCC1.O=S(=O)([N-]S(=O)(=O)C(F)(F)F)C(F)(F)F
[1]
Conditions | thermal conductivity [W/m/K]
293 K | 0.118
303 K | 0.118
313 K | 0.118
323 K | 0.117
333 K | 0.117

CCCCn1cc[n+](C)c1.F[P-](F)(F)(F)(F)F [1-butyl-3-methylimidazolium hexafluorophosphate]
Conditions | molar heat capacity at constant pressure [J/K/mol] | thermal conductivity [W/m/K]
[1], 293 K | – | 0.145
[1], 303 K | – | 0.145
[1], 313 K | – | 0.145
[1], 323 K | – | 0.144
[1], 333 K | – | 0.143
[1], 343 K | – | 0.143
[1], 353 K | – | 0.143
[2], 308.16 K | 410.64 | –
[2], 313.16 K | 413.48 | –
[2], 318.16 K | 417.74 | –
[2], 323.16 K | 422.01 | –
[2], 328.22 K | 423.43 | –
[2], 333.22 K | 426.27 | –
[2], 338.19 K | 429.11 | –
[2], 343.18 K | 433.37 | –
[2], 348.25 K | 436.22 | –
[2], 353.18 K | 439.06 | –
[2], 358.25 K | 441.9 | –
[2], 363.18 K | 443.32 | –
[2], 368.17 K | 444.74 | –
[2], 373.21 K | 447.58 | –
[2], 378.2 K | 450.43 | –
[2], 383.17 K | 454.69 | –
[2], 388.2 K | 457.53 | –
[2], 393.17 K | 460.37 | –
[2], 398.2 K | 463.21 | –
[2], 403.2 K | 468.9 | –
[2], 408.16 K | 470.32 | –
[2], 413.19 K | 471.74 | –
[2], 418.19 K | 473.16 | –
[2], 423.22 K | 474.58 | –

CCCCn1cc[n+](C)c1.F[B-](F)(F)F [1-butyl-3-methylimidazolium tetrafluoroborate]
[2]
Conditions | molar heat capacity at constant pressure [J/K/mol]
308.16 K | 367.26
313.16 K | 367.64
318.16 K | 370.39
323.16 K | 371.89
328.22 K | 373.73
333.22 K | 375.92
338.19 K | 377.15
343.18 K | 380.16
348.25 K | 382.69
353.18 K | 384.8
358.25 K | 386.99
363.18 K | 389.18
368.17 K | 390
373.21 K | 390.04
378.2 K | 392.18
383.17 K | 393.64
388.2 K | 395.28
393.17 K | 396.49
398.2 K | 397.93
403.2 K | 400.74
408.16 K | 403.88
413.19 K | 403.49
418.19 K | 404.98
423.22 K | 406.62

CCCCCCn1cc[n+](C)c1.F[B-](F)(F)F [1-hexyl-3-methylimidazolium tetrafluoroborate]
[1]
Conditions | thermal conductivity [W/m/K]
293 K | 0.158
303 K | 0.157
313 K | 0.156
323 K | 0.155
333 K | 0.153
343 K | 0.152
353 K | 0.151

From the NIST ThermoML archive (doi:10.1021/je900648p)
